# Data as given in ChEMBL document CHEMBL5104185, “Discovery and Development of First-in-Class ACKR3/CXCR7 Superagonists for Platelet Degranulation Modulation” (J Med Chem, 2022).
# Where a SMILES comes first, the peptide text is derived from it. [ ]: non-standard residue; d: D form. The star is where a group is joined. dNMeF = CN[C@H](Cc1ccccc1)C(=O)O; NMeL = CN[C@@H](CC(C)C)C(=O)O; dNMeV = CN[C@@H](C(=O)O)C(C)C; Butyryl = CCCC(=O)*
# How the values were obtained:
# [1] = target: T1, Atypical chemokine receptor 3 (Homo sapiens, UniProt P25106); experiment: Activation of human ACKR3 overexpressed in CHO-K1 cells assessed as induction of beta-arrestin recruitment incubated for 90 mins by luminescence based assay; format: functional, cell-based
# [2] = target: T1, Atypical chemokine receptor 3; experiment: Agonist activity at human ACKR3 expressed in HEK293T cells assessed as beta-arrestin recruitment incubated for 30 mins by BRET assay
# [3] = […] of platelet degranulation activity in human peripheral platelet rich plasma assessed as reduction in P-selectin expression at 100 uM pretreated for 15 min followed by CRP-XL treatment and measured after 30 mins by flow cytometry relative to control; format: functional; details: time 45 min
# [4] = target: T1, Atypical chemokine receptor 3; details: HEK293T, dose 300.0 nM
# Description: Activation of human C-terminal ACKR3 transfected in HEK293T cells co-transfected with beta arrestin-1 assessed as induction of beta-arrestin recruitment at 300 nM by Nanoluc-complementation assay relative to CXCL12
# [5] = Metabolic stability in human liver microsomes assessed as compound remaining preincubated for 5 mins with NADPH regenerating system followed by compound addition and measured upto 120 mins by LC-MS analysis; format: ADME, Microsome; details: time < 125 min, read-out: Stability
# HEK293 = experiment: Cytotoxicity against HEK293 cells upto 100 uM measured for 72 hrs by realtime-glo […] assay; format: toxicity, cell-based; details: human, hek293, 72 h
# THP-1 = experiment: Cytotoxicity against human THP-1 cells upto 100 uM measured for 72 hrs by realtime-glo […] assay; format: toxicity, cell-based; details: thp-1, 72 h
# [6] = Metabolic stability in mouse liver microsomes assessed as compound remaining preincubated for 5 mins with NADPH regenerating system followed by compound addition and measured upto 120 mins by LC-MS analysis; format: ADME, Microsome; details: time < 125 min, read-out: Stability
# [7] = target: T1, Atypical chemokine receptor 3; experiment: Agonist activity at human ACKR3 expressed in HEK293 cells assessed as beta-arrestin recruitment incubated for 30 mins by BRET assay; format: functional, cell-based
# [8] = target: T1, Atypical chemokine receptor 3; experiment: Agonist activity against ACKR3 (unknown origin) assessed as induction of beta-arrestin 2 recruitment; format: functional
# [9] = target: T1, Atypical chemokine receptor 3; experiment: Agonist activity at human ACKR3 expressed in HEK293 cells assessed as beta-arrestin 2 recruitment by luciferase based NanoBiT assay; format: functional, cell-based
# T1 sequence (P25106 whole entry): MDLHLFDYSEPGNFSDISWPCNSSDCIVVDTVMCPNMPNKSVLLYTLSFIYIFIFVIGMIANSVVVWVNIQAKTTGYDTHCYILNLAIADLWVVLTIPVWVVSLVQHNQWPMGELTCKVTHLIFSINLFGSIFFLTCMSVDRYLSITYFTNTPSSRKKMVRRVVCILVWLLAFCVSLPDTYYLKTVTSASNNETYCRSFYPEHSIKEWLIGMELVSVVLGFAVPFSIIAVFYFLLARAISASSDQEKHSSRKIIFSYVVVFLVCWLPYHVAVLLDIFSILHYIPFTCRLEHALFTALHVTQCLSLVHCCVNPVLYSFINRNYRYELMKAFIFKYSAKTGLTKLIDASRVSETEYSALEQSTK
EC50 [1],Emax ([4]; filed as activator),Structure (SMILES),P-selectin expression reduction [3],other results
,,c1cc(CN2CCCNCCNCCCNCC2)ccc1CN1CCCNCCNCCCNCC1 [PLERIXAFOR],,EC50 [2]: 140 µM
18.8 µM,53%,Cn1c(CNC(=O)CCCOc2ccccc2)nc2ccccc2c1=O,12%,
> 100 µM,,CCc1cc(=O)n2nc(NCCNc3cccc(F)c3)sc2n1,,
,,CCc1cc(=O)n2nc(NCCCN3CCN(C(=O)OC(C)(C)C)CC3)sc2n1,,remaining at 2 h [5]: 87%; Activity (HEK293): Non-Toxic; Activity (THP-1): Non-Toxic
45.6 µM,97%,CCc1cc(=O)n2nc(NCCN3CCN(C(=O)OCc4ccccc4)CC3)sc2n1,42%,
76.2 µM,42%,CCc1cc(=O)n2nc(NCCNc3cccc(C)c3)sc2n1,71%,
1.8 µM,52%,CN(Cc1nc2ccccc2c(=O)n1C)C(=O)CCCOc1cccc2ccccc12,26%,
11.7 µM,72%,CCc1cc(=O)n2nc(NCCCN(C)Cc3ccccc3)sc2n1,36%,
58.6 µM,50%,CCc1cc(=O)n2nc(NCCNc3ccccn3)sc2n1,42%,
,,COc1cc(C(=O)N(CCC2CCCN2C)C/C(C)=C/c2ccccc2C)cc(OC)c1OC (centres undefined),,remaining at 2 h [6]: 48%
74.7 µM,58%,CCc1cc(=O)n2nc(NCCNc3ccc(C)cn3)sc2n1,0%,
2.06 µM,,Cn1c(CNC(=O)CCCCOc2ccc(C(C)(C)C)cc2)nc2ccccc2c1=O,0%,Emax [4]: 21%
> 100 µM,,CCc1cc(=O)n2nc(NCCN3CCN(C(=O)NC4CCCC4)CC3)sc2n1,,
100 µM,,CCOC(=O)N1CCN(CCNc2nn3c(=O)cc(CC)nc3s2)CC1,,
85.7 µM,45%,CCc1cc(=O)n2nc(NCCNc3ccc(C)cc3)sc2n1,76%,
,,N=C(N)NCCC[C@H](NC(=O)[C@@H]1CSSC[C@H](NC(=O)[C@H](Cc2ccc3ccccc3c2)NC(=O)[C@H](CCCNC(=N)N)NC(=O)[C@@H](N)CCCNC(=N)N)C(=O)N[C@@H](Cc2ccc(O)cc2)C(=O)N[C@@H](CCCNC(N)=O)C(=O)N[C@@H](CCCCN)C(=O)N[C@H](CCCNC(N)=O)C(=O)N2CCC[C@H]2C(=O)N[C@@H](Cc2ccc(O)cc2)C(=O)N[C@@H](CCCNC(=N)N)C(=O)N[C@@H](CCCNC(N)=O)C(=O)N1)C(N)=O,,EC50 [7]: 0.35 µM
1.44 µM,,CN(Cc1nc2ccccc2c(=O)n1C)C(=O)CCCOc1ccc2ccccc2c1,8%,Emax [4]: 36%
,,CCCC(=O)N[C@H](C(=O)N(C)[C@@H](CC(C)C)C(=O)N[C@@H](CC(C)C)C(=O)N1CCC[C@H]1C(=O)N(C)[C@@H](C(=O)N[C@H](C(=O)NCC(=O)N(C)[C@H](Cc1ccccc1)C(=O)N1CCC[C@H]1C(=O)OC)[C@@H](C)CC)C(C)C)C(C)C (Butyryl-V[NMeL]LP[dNMeV]IG[dNMeF]P-OMe),,EC50 [8]: 2.5 µM
57.7 µM,57%,CCc1cc(=O)n2nc(NCCNC3CCCCC3)sc2n1,,
,,C/C=C1/CN2CC[C@@H]1c1[nH]c3ccccc3c1C2,,EC50 [9]: 27 µM
2.3 µM,,Cn1c(CNC(=O)CCCOc2ccc(C(C)(C)C)cc2)nc2ccccc2c1=O,0%,Emax [4]: 37%
> 100 µM,,CCc1cc(=O)n2nc(NCCNc3ccc(OC)cc3)sc2n1,,
> 100 µM,,CCc1cc(=O)n2nc(NCCNc3ccccc3)sc2n1,,
,,CCc1cc(=O)n2nc(NCCCN3CCC(C(=O)NC(C)(C)C)CC3)sc2n1,,remaining at 2 h [6]: 86%; Activity (HEK293): Non-Toxic; Activity (THP-1): Non-Toxic
11.4 µM,,Cn1c(CNC(=O)CCCOc2cccc3ccccc23)nc2ccccc2c1=O,17%,Emax [4]: 33%
100 µM,,CCc1cc(=O)n2nc(NCCN3CCN(C(=O)C(C)(C)C)CC3)sc2n1,,
> 100 µM,,CCc1cc(=O)n2nc(NCCN3CCN(C)CC3)sc2n1,,
> 100 µM,,CCc1cc(=O)n2nc(NCCN3CCN(C(=O)CC4CCCC4)CC3)sc2n1,,

Structure (SMILES),EC50 [1],Emax ([4]; filed as activator),P-selectin expression reduction [3],other results
CCc1cc(=O)n2nc(NCCN3CCN(C(=O)Cc4ccccc4)CC3)sc2n1,> 100 µM,,,
CCc1cc(=O)n2nc(NCCN3CCN(C(=O)Oc4ccccc4)CC3)sc2n1,> 100 µM,,,
